Earlier results in patent US20090062317A1, “MEDICINAL USE OF RECEPTOR LIGANDS” (7TM PHARMA A/S, priority 2004, published 2009).

System: rats
Conditions: literature reports

| SMILES | food intake induced by i.c.v.-injected MCH |
| --- | --- |
| CN(C)CC1CCc2cc(NC(=O)c3ccc(-c4ccc(F)cc4)cc3)ccc2C1 (centres unmarked) [Example T-226296] | suppress food intake |
| COCC1=C(C(=O)OC)[C@H](c2ccc(F)c(F)c2)N(C(=O)NCCCN2CCC(c3cccc(NC(C)=O)c3)CC2)C(=O)N1 [SNAP-7941] | suppress food intake |
